We go through eight compounds from patent US20240376094A2, “SELECTIVE BCL-XL PROTAC COMPOUNDS AND METHODS OF USE” (Les Laboratoires Servier, priority 2021, published 2024).

SMILES strings stand for the structures. pIC50: −log10 of the molar value.

Format in all cases: cell-based
The test system of experiment [1] is MOLT-4 cells. Put plainly: MOLT-4 cell viability, MTT assay. Conditions: Homo sapiens, MOLT-4, 48 h. An outline of the steps:
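MOLT-4 cells in RPMI 1640 with 10% FBS were exposed to compounds for 48 h at 9 concentrations (3.16-fold dilutions, triplicates). After 4 h with MTT and overnight SDS/HCl solubilisation, absorbance was read at 540 nm. IC50 came from four-parameter fits versus control, as the mean of ≥2 independent experiments.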
For orientation: Formazan colour is commonly taken as a measure of viable cells.

Experiment [2] addresses T1, Bcl-xL (Homo sapiens, UniProt Q07817).
T1 construct: Measured levels of Bcl-xL protein of HCT116 cells treated with the tested compounds; host or cells: HCT116
Description: HCT116 Bcl-xL degradation, capillary-based immunoassay (WES). The following applies: for DC50: HCT116, 24 h, 9-point serial dilution; for remaining activity at 0.01 µM / remaining activity at 0.1 µM: HCT-116, 24 h, % of untreated cells; for remaining activity at 0.01 µM: HCT116, 10 nM; for remaining activity at 0.1 µM: HCT116, 100 nM. An outline of the steps: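 HCT116 cells treated 24 h with compound at 10/100 nM and/or 9-point dilution (quadruplicates), then lysed. Bcl-xL measured by capillary WES immunoassay, normalized to cofilin and expressed as % of untreated cells. DC50 from four-parameter curve fit.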

For experiment [3], the system named is EBC-1 lung cancer cell line. Put plainly: EBC-1 cell proliferation, CellTiter-Glo assay. The following applies: Homo sapiens, 120 h; Ebc-1 cell viability, CTG assay, 5 days of treatment; read-out: CTG 5 day Ebc1 GI50. An outline of the steps: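 EBC-1 cells seeded at 1000 per well overnight, then exposed to 10-point dilutions (0.508 nM–10 μM final) for 5 days at 37 °C, in triplicate. ATP luminescence by CellTiter-Glo, normalised to untreated wells; GI50 from four-parameter logistic fit, runs valid only with at least one doubling.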
On the technique in general: Cellular ATP, detected with luciferase, serves as a proxy for viable cell number.

In experiment [4] the target is T2, HiBiT-tagged BCL-xL (Homo sapiens, UniProt Q07817).
T2 construct: expressed in transfected cells; host or cells: NCI-H1650 (ATCC No. CRL-5883), engineered HiBiT cell line
Description: NCI-H1650 BCL-xL protein levels, Nano-Glo HiBiT Lytic Detection. The following applies: NCI-H1650 expressing HiBiT-tagged BCL-xL, overnight incubation, read-out: Bcl-xl HIBIT NCIH1650 DC50. An outline of the steps: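 NCI-H1650 cells expressing HiBiT-tagged BCL-xL (5000/well) were treated overnight at 37° C with 10 concentrations, final 0.508 nM-10 μM, in triplicate. Remaining BCL-xL measured by Nano-Glo HiBiT lytic luminescence, normalized to untreated cells; 50% values by four-parameter logistic fit.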
(In general: HiBiT is a short tag that completes a luciferase, so light tracks the accessible tagged protein.)

For experiment [5], the system named is MOLT-4 cells. Put plainly: MOLT-4 cell viability, CTG assay. Conditions: Homo sapiens, MOLT-4, 48 h. The procedure, abridged:
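Cells grown in RPMI 1640 with 10% FBS at 37° C, 5% CO2, then exposed to compounds for 48 h (11-point 5-fold dilution, triplicates). ATP measured by CellTiter-Glo luminescence; IC50 from four-parameter fit versus control, mean of ≥2 independent experiments.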

T1 sequence (Q07817 whole entry): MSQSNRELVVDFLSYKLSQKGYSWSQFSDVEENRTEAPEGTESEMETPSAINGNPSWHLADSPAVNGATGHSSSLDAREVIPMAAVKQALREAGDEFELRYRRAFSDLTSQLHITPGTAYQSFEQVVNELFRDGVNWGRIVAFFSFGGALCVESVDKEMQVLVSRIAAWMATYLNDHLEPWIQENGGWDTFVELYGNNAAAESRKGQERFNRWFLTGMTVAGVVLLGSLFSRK
T2 sequence (Q07817 whole entry): as above

As usually defined, the pIC50 is −log10 of the IC50, conventionally taken in molar units. Lower therefore signals a high IC50. In general, GI50 refers to the concentration giving 50% growth inhibition. `Cc1cc(N(CCCCCn2cc(CCCCCCCCC(=O)N[C@H](C(=O)N3C[C@H](O)C[C@H]3C(=O)NCc3ccc(-c4scnc4C)cc3)C(C)(C)C)nn2)c2ccc(-c3cnn(CC45CC6(C)CC(C)(C4)CC(OCCN(C)C)(C6)C5)c3C)c(C(=O)O)n2)nnc1Nc1nc2ccccc2s1` [Example 152, 6-[[6-(1,3-benzothiazol-2-ylamino)-5-methyl-pyridazin-3-yl]-[5-[4-[9-[[(1S)-1-[(2S,4R)-4-hydroxy-2-[[4-(4-methylthiazol-5-yl)phenyl]methylcarbamoyl]pyrrolidine-1-carbonyl]-2,2-dimethyl-propyl]amino]-9-oxo-nonyl]triazol-1-yl]pentyl]amino]-3-[1-[[3-[2-(dimethylamino)ethoxy]-5,7-dimethyl-1-adamantyl]methyl]-5-methyl-pyrazol-4-yl]pyridine-2-carboxylic acid] had a negative logarithm of the IC50 (pIC50) in experiment [1] of 7.09. Moreover, the DC50 in experiment [2] was 11.4 nM; in experiment [4] it was over 1670 nM. In addition, the GI50 in experiment [3] came out at 121 nM.

The term remaining activity denotes the signal under treatment as a percentage of the control signal. Regarding `Cc1ncsc1-c1ccc(CNC(=O)[C@@H]2C[C@@H](O)CN2C(=O)[C@@H](NC(=O)CCCCC(=O)N2CCN(CC#Cc3ccc(OCCCc4sc(N5CCCc6c5nnc(Nc5nc7ccccc7s5)c6C)nc4C(=O)O)c(F)c3)CC2)C(C)(C)C)cc1` [Example 19, 2-[3-(1,3-benzothiazol-2-ylamino)-4-methyl-6,7-dihydro-5H-pyrido[2,3-c]pyridazin-8-yl]-5-[3-[2-fluoro-4-[3-[4-[6-[[(1S)-1-[(2S,4R)-4-hydroxy-2-[[4-(4-methylthiazol-5-yl)phenyl]methylcarbamoyl]pyrrolidine-1-carbonyl]-2,2-dimethyl-propyl]amino]-6-oxo-hexanoyl]piperazin-1-yl]prop-1-ynyl]phenoxy]propyl]thiazole-4-carboxylic acid], the pIC50 in experiment [1] is 7.88. In experiment [2], the remaining activity at 0.01 µM was 104% and the remaining activity at 0.1 µM was 88%. The GI50 in experiment [3] came out at 25 nM. Also, in experiment [4], the DC50 is over 1670 nM.

As for `Cc1ncsc1-c1ccc(CNC(=O)[C@@H]2C[C@@H](O)CN2C(=O)[C@@H](NC(=O)C2(F)CC2)C(C)(C)C)c(OCCCCCCN(C)CCOC23CC4(C)CC(C)(CC(Cn5ncc(-c6ccc(N7CCCc8c7nnc(Nc7nc9ccccc9s7)c8C)nc6C(=O)O)c5C)(C4)C2)C3)c1` [Example 137, 6-[3-(1,3-benzothiazol-2-ylamino)-4-methyl-6,7-dihydro-5H-pyrido[2,3-c]pyridazin-8-yl]-3-[1-[[3-[2-[6-[2-[[[(2S,4R)-1-[(2S)-2-[(1-fluorocyclopropanecarbonyl)amino]-3,3-dimethyl-butanoyl]-4-hydroxy-pyrrolidine-2-carbonyl]amino]methyl]-5-(4-methylthiazol-5-yl)phenoxy]hexyl-methyl-amino]ethoxy]-5,7-dimethyl-1-adamantyl]methyl]-5-methyl-pyrazol-4-yl]pyridine-2-carboxylic acid], the pIC50 in experiment [1] is 7.79. The DC50 in experiment [2] is over 316 nM; in experiment [4], over 1670 nM. Besides, in experiment [3], the GI50 was determined as 4 nM.

Consider `Cc1ncsc1-c1ccc([C@H](C)NC(=O)[C@@H]2C[C@@H](O)CN2C(=O)[C@@H](NC(=O)CCCCCCCCCCN(C)CCOC23CC4(C)CC(C)(CC(Cn5ncc(-c6ccc(N7CCCc8c7nnc(Nc7nc9ccccc9s7)c8C)nc6C(=O)O)c5C)(C4)C2)C3)C(C)(C)C)cc1` [Example 135, 6-[3-(1,3-benzothiazol-2-ylamino)-4-methyl-6,7-dihydro-5H-pyrido[2,3-c]pyridazin-8-yl]-3-[1-[[3-[2-[[11-[[(1S)-1-[(2S,4R)-4-hydroxy-2-[[(1S)-1-[4-(4-methylthiazol-5-yl)phenyl]ethyl]carbamoyl]pyrrolidine-1-carbonyl]-2,2-dimethyl-propyl]amino]-11-oxo-undecyl]-methyl-amino]ethoxy]-5,7-dimethyl-1-adamantyl]methyl]-5-methyl-pyrazol-4-yl]pyridine-2-carboxylic acid], for which the pIC50 in experiment [1] is 8.45. Further, the DC50 in experiment [2] came to 0.978 nM; in experiment [4], 1 nM. Besides, in experiment [3], the GI50 was 4 nM.

Compound `Cc1ncsc1-c1ccc([C@H](C)NC(=O)[C@@H]2C[C@@H](O)CN2C(=O)[C@@H](NC(=O)CCCCCCN(C)CCOC23CC4(C)CC(C)(CC(Cn5ncc(-c6ccc(N7CCCc8c7nnc(Nc7nc9ccccc9s7)c8C)nc6C(=O)O)c5C)(C4)C2)C3)C(C)(C)C)cc1` [Example 3, 6-[3-(1,3-benzothiazol-2-ylamino)-4-methyl-6,7-dihydro-5H-pyrido[2,3-c]pyridazin-8-yl]-3-[1-[[3-[2-[[7-[[(1S)-1-[(2S,4R)-4-hydroxy-2-[[(1S)-1-[4-(4-methylthiazol-5-yl)phenyl]ethyl]carbamoyl]pyrrolidine-1-carbonyl]-2,2-dimethyl-propyl]amino]-7-oxo-heptyl]-methyl-amino]ethoxy]-5,7-dimethyl-1-adamantyl]methyl]-5-methyl-pyrazol-4-yl]pyridine-2-carboxylic acid] had a pIC50 in experiment [1] of 7.49. In experiment [2], the DC50 was found to be 4.21 nM, the remaining activity at 0.01 µM came out at 23% and the remaining activity at 0.1 µM came out at 17%. Moreover, the GI50 in experiment [3] is 9 nM. In experiment [4], the DC50 was determined as 3 nM.

As to `Cc1ncsc1-c1ccc(CNC(=O)[C@@H]2C[C@@H](O)CN2C(=O)[C@@H](NC(=O)C2(F)CC2)C(C)(C)C)c(OCCCCCCCCN(C)CCOC23CC4(C)CC(C)(CC(Cn5ncc(-c6ccc(N7CCCc8c7nnc(Nc7nc9ccccc9s7)c8C)nc6C(=O)O)c5C)(C4)C2)C3)c1` [Example 138, 6-[3-(1,3-benzothiazol-2-ylamino)-4-methyl-6,7-dihydro-5H-pyrido[2,3-c]pyridazin-8-yl]-3-[1-[[3-[2-[8-[2-[[[(2S,4R)-1-[(2S)-2-[(1-fluorocyclopropanecarbonyl)amino]-3,3-dimethyl-butanoyl]-4-hydroxy-pyrrolidine-2-carbonyl]amino]methyl]-5-(4-methylthiazol-5-yl)phenoxy]octyl-methyl-amino]ethoxy]-5,7-dimethyl-1-adamantyl]methyl]-5-methyl-pyrazol-4-yl]pyridine-2-carboxylic acid], the pIC50 in experiment [1] is 8.48. The DC50 in experiment [2] is 21.2 nM; in experiment [4] it was over 1670 nM.

Take `Cc1c(Nc2nc3ccccc3s2)nnc2c1CCCN2c1ccc(-c2cnn(CC34CC5(C)CC(C)(C3)CC(OCCN(C)CCOCCOCCNc3cccc6c3C(=O)N(C3CCC(=O)NC3=O)C6=O)(C5)C4)c2C)c(C(=O)O)n1` (centres unmarked) [Example 12, 6-[3-(1,3-benzothiazol-2-ylamino)-4-methyl-6,7-dihydro-5H-pyrido[2,3-c]pyridazin-8-yl]-3-[1-[[3-[2-[2-[2-[2-[[2-(2,6-dioxo-3-piperidyl)-1,3-dioxo-isoindolin-4-yl]amino]ethoxy]ethoxy]ethyl-methyl-amino]ethoxy]-5,7-dimethyl-1-adamantyl]methyl]-5-methyl-pyrazol-4-yl]pyridine-2-carboxylic acid]: the pIC50 is 8.02 in experiment [1] and 7.70 in experiment [5]. Further, the remaining activity at 0.01 µM in experiment [2] stood at 69%. In experiment [2], the remaining activity at 0.1 µM was 69%.

With `Cc1cc(N(CCCCCn2cc(CCCCCCCNC(=O)COc3cccc4c3C(=O)N(C3CCC(=O)NC3=O)C4=O)nn2)c2ccc(-c3cnn(CC45CC6(C)CC(C)(C4)CC(OCCN(C)C)(C6)C5)c3C)c(C(=O)O)n2)nnc1Nc1nc2ccccc2s1` (centres unmarked) [Example 64, 6-[[6-(1,3-benzothiazol-2-ylamino)-5-methyl-pyridazin-3-yl]-[5-[4-[7-[[2-[2-(2,6-dioxo-3-piperidyl)-1,3-dioxo-isoindolin-4-yl]oxyacetyl]amino]heptyl]triazol-1-yl]pentyl]amino]-3-[1-[[3-[2-(dimethylamino)ethoxy]-5,7-dimethyl-1-adamantyl]methyl]-5-methyl-pyrazol-4-yl]pyridine-2-carboxylic acid], in experiment [1], the pIC50 is 7.03. Also, the pIC50 in experiment [5] is 6.93. In addition, in experiment [2], the DC50 came to 46.2 nM, the remaining activity at 0.01 µM was 59% and the remaining activity at 0.1 µM worked out at 40%.
